Results from PubChem BioAssay AID248 (DTP/NCI, 2004).
Inconclusive results and toxic doses are left out. Rule as the data show it: active = T/C of 150% or more; inactive = T/C below 125%.

System: L1210 leukemia ip in BDF1 mice, survival T/C
Assay: NCI In Vivo Anticancer Drug Screen. Data for tumor model L1210 Leukemia (intraperitoneal) in B6D2F1 (BDF1) mice
Conditions: endpoint: mean survival time, higher = longer survival
Outline: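 Tumor cells were implanted, animals were treated, and survival was followed. The result divides the treated measurement by the vehicle-control measurement.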

[1] = dose: 100.0 mg/kg/injection, schedule: Q01DX001 (ip), vehicle: carboxymethylcellulose (CMC)
[2] = dose: 200.0 mg/kg/injection, schedule: Q01DX001 (ip), vehicle: carboxymethylcellulose (CMC)
[3] = dose: 400.0 mg/kg/injection, schedule: Q01DX001 (ip), vehicle: carboxymethylcellulose (CMC)
[4] = dose: 100.0 mg/kg/injection, schedule: Q01DX009 (ip), vehicle: saline with Tween-80
[5] = dose: 200.0 mg/kg/injection, schedule: Q01DX009 (ip), vehicle: saline with Tween-80
[6] = dose: 100.0 mg/kg/injection, schedule: Q04DX003 (ip), vehicle: saline with Tween-80
[7] = dose: 200.0 mg/kg/injection, schedule: Q04DX003 (ip), vehicle: saline with Tween-80
[8] = dose: 400.0 mg/kg/injection, schedule: Q01DX009 (ip), vehicle: saline with Tween-80
[9] = dose: 400.0 mg/kg/injection, schedule: Q04DX003 (ip), vehicle: saline with Tween-80
[10] = dose: 100.0 mg/kg/injection, schedule: Q04DX002 (ip), vehicle: Klucel (hydroxypropylcellulose) (HPC)
[11] = dose: 200.0 mg/kg/injection, schedule: Q04DX002 (ip), vehicle: Klucel (hydroxypropylcellulose) (HPC)
[12] = dose: 400.0 mg/kg/injection, schedule: Q04DX002 (ip), vehicle: Klucel (hydroxypropylcellulose) (HPC)
[13] = dose: 100.0 mg/kg/injection, schedule: Q01DX001 (ip), vehicle: saline
[14] = dose: 200.0 mg/kg/injection, schedule: Q01DX001 (ip), vehicle: saline
[15] = dose: 400.0 mg/kg/injection, schedule: Q01DX001 (ip), vehicle: saline

Measured: T/C

O=C(O)c1ccc2c(c1)C(=O)c1ccccc1-2
inactive: [1] 107 % of control | [2] 100 % of control | [3] 107 % of control

c1ccc(-c2nc(N3CCOCC3)nc3ccccc23)cc1
inactive: [4] 94 % of control | [5] 90 % of control

CCN(C(=O)Nc1ccccc1)c1ccccc1C
inactive: [4] 97 % of control | [6] 111 % of control | [5] 86 % of control | [7] 98 % of control | [8] 92 % of control | [9] 102 % of control

O=C(O)c1ccc(S(=O)(=O)O)cc1C(=O)O
inactive: dose: 50.0 mg/kg/injection, schedule: Q01DX001 (sc), vehicle: olive oil, sesame oil, peanut oil 104 % of control | dose: 100.0 mg/kg/injection, schedule: Q01DX001 (sc), vehicle: olive oil, sesame oil, peanut oil 102 % of control | [4] 89 % of control | dose: 100.0 mg/kg/injection, schedule: Q04DX003 (ip), vehicle: saline 104 % of control | dose: 200.0 mg/kg/injection, schedule: Q01DX001 (sc), vehicle: olive oil, sesame oil, peanut oil 96 % of control | [5] 88 % of control | dose: 200.0 mg/kg/injection, schedule: Q04DX003 (ip), vehicle: saline 102 % of control | dose: 400.0 mg/kg/injection, schedule: Q01DX001 (sc), vehicle: olive oil, sesame oil, peanut oil 98 % of control | dose: 400.0 mg/kg/injection, schedule: Q04DX003 (ip), vehicle: saline 101 % of control

O=[N+]([O-])c1ccc(OCc2cccc(Cl)c2S(=O)(=O)F)c(Cl)c1
inactive: dose: 100.0 mg/kg/injection, schedule: Q04DX003 (ip), vehicle: gum acacia 98 % of control | dose: 200.0 mg/kg/injection, schedule: Q04DX003 (ip), vehicle: gum acacia 104 % of control | dose: 400.0 mg/kg/injection, schedule: Q04DX003 (ip), vehicle: gum acacia 97 % of control

NC(=O)C1(O)C(Cl)(Cl)CCCC1(Cl)Cl
inactive: dose: 50.0 mg/kg/injection, schedule: Q01DX009 (ip), vehicle: saline with Tween-80 102 % of control | [4] 91 % of control | [5] 106 % of control

Cc1no[n+]([O-])c1C(=O)NN
inactive: [10] 106 % of control | [11] 91 % of control | [12] 95 % of control

COC1C(OC(N)=O)C(O)C(Oc2ccc3c(O)c(NC(=O)c4ccc(O)c(CC=C(C)C)c4)c(=O)oc3c2C)OC1(C)C (stereo not drawn)
inactive: dose: 50.0 mg/kg/injection, schedule: Q01DX Z (ip), vehicle: saline 91 % of control | dose: 100.0 mg/kg/injection, schedule: Q01DX Z (ip), vehicle: saline 91 % of control | dose: 200.0 mg/kg/injection, schedule: Q01DX Z (ip), vehicle: saline 91 % of control

CC(=O)OCCOc1ccccc1Cl
inactive: dose: 100.0 mg/kg/injection, schedule: Q04DX002 (ip), vehicle: saline with Tween-80 118 % of control | dose: 200.0 mg/kg/injection, schedule: Q04DX002 (ip), vehicle: saline with Tween-80 108 % of control | dose: 400.0 mg/kg/injection, schedule: Q04DX002 (ip), vehicle: saline with Tween-80 114 % of control

O=C(NCCCl)NC1CCc2ccccc21 (stereo not drawn)
inactive: dose: 20.0 mg/kg/injection, schedule: Q04DX003 (ip), vehicle: Klucel (hydroxypropylcellulose) (HPC) 92 % of control | dose: 40.0 mg/kg/injection, schedule: Q04DX003 (ip), vehicle: Klucel (hydroxypropylcellulose) (HPC) 92 % of control | dose: 80.0 mg/kg/injection, schedule: Q04DX003 (ip), vehicle: Klucel (hydroxypropylcellulose) (HPC) 91 % of control | dose: 100.0 mg/kg/injection, schedule: Q04DX003 (ip), vehicle: Klucel (hydroxypropylcellulose) (HPC) 95 % of control | dose: 200.0 mg/kg/injection, schedule: Q04DX003 (ip), vehicle: Klucel (hydroxypropylcellulose) (HPC) 106 % of control

CSc1nc(N)nc2c1nc(SC)n2C1OC(CO)C(O)C1O (stereo not drawn)
inactive: dose: 100.0 mg/kg/injection, schedule: Q01DX005 (ip), vehicle: saline 102 % of control | dose: 200.0 mg/kg/injection, schedule: Q01DX005 (ip), vehicle: saline 94 % of control

CC(=O)C(C(C)=O)C(=O)c1ccc2ccccc2c1
inactive: dose: 222.0 mg/kg/injection, schedule: Q01DX Z (ip), vehicle: methylcellulose (MC) 107 % of control | dose: 333.0 mg/kg/injection, schedule: Q01DX Z (ip), vehicle: methylcellulose (MC) 94 % of control | dose: 500.0 mg/kg/injection, schedule: Q01DX Z (ip), vehicle: methylcellulose (MC) 96 % of control

O=C(Nc1ccc(Cl)c(Cl)c1)n1ncc2ccc([N+](=O)[O-])cc21
inactive: [13] 100 % of control | [14] 96 % of control | [15] 100 % of control

O=C(CCCl)N1CCN(C(=O)CCCl)c2ccccc21
inactive: [1] 103 % of control | [2] 96 % of control | [3] 96 % of control

C[Si](C)(C)OC(C(F)(F)F)C(F)(F)F
inactive: dose: 100.0 mg/kg/injection, schedule: Q01DX001 (ip), vehicle: steriod suspending solution 98 % of control | dose: 200.0 mg/kg/injection, schedule: Q01DX001 (ip), vehicle: steriod suspending solution 96 % of control | dose: 400.0 mg/kg/injection, schedule: Q01DX001 (ip), vehicle: steriod suspending solution 86 % of control

COc1cc(C=O)c([N+](=O)[O-])cc1OC
inactive: [13] 102 % of control | [14] 102 % of control

CCCc1c(CC)c(Cl)nc2ccccc12
inactive: [13] 105 % of control | [14] 103 % of control | [15] 91 % of control

CC1CCCC(CN=Cc2ccccc2O)[N-]1.CC1CCCC(CN=Cc2ccccc2O)[N-]1.[Ni+2] (stereo not drawn)
inactive: [6] 98 % of control

O=S(c1ccc(O)cc1)c1ccc(O)cc1
inactive: [6] 99 % of control | [7] 94 % of control | [9] 101 % of control

C#CCCN1CCC2(CC1)C(=O)NCN2c1ccccc1
inactive: dose: 100.0 mg/kg/injection, schedule: Q01DX001 (ip), vehicle: Klucel (hydroxypropylcellulose) (HPC) 91 % of control | dose: 200.0 mg/kg/injection, schedule: Q01DX001 (ip), vehicle: Klucel (hydroxypropylcellulose) (HPC) 94 % of control | dose: 400.0 mg/kg/injection, schedule: Q01DX001 (ip), vehicle: Klucel (hydroxypropylcellulose) (HPC) 91 % of control

Cc1[nH]c2ccc(N(C)C)cc2c(=O)c1Cc1c(C)[nH]c2ccc(N(C)C)cc2c1=O
inactive: [4] 94 % of control | [5] 95 % of control | [8] 92 % of control

C[C@]12CC[C@H](OC(=O)Cc3ccc(N(CCCl)CCCl)cc3)CC1=CC[C@@H]1[C@@H]2CC[C@]2(C)C(=O)CC[C@@H]12
inactive: [6] 88 % of control | [7] 88 % of control | [9] 88 % of control

COc1ccc(OC)c(-n2cccc2C(=O)O)c1
inactive: [10] 90 % of control | [11] 97 % of control | [12] 93 % of control

O/N=C1/CCCC/C1=C/c1ccc(Cl)cc1
inactive: [4] 104 % of control | [5] 111 % of control | [8] 88 % of control
